Experimental findings from paper PMC3429506, “Screening for Novel LRRK2 Inhibitors Using a High-Throughput TR-FRET Cellular Assay for LRRK2 Ser935 Phosphorylation” (PLoS ONE, 2012) are described below.

This experiment has as its system LRRK2-GFP. The experiment is described as follows: Western blot analysis of LRRK2-GFP Ser935 phosphorylation in BacMam transduced SH-SY5Y cells. In kind it is cell-based, human. As to conditions: LRRK2-IN-1 3 µM 90 min, wild-type, G2019S, R1441C, Figure 3A. How it is done: Immunoblot analysis: BacMam LRRK2-GFP transduced U-2 OS or SH-SY5Y cells (10^7 cells) were left untreated or treated with 3 µM LRRK2-IN-I for 90 min. For lysate preparation, the cells were washed once with ice-cold PBS and lysed by addition of ice-cold lysis buffer (20 mM Tris-HCl, pH 7.4, 1% NP-40, 5 mM EDTA, 5 mM NaF, 150 mM NaCl, and 1∶100 of protease and phosphatase inhibitor cocktails). The lysate was cleared of debris by centrifugation. Equal amount of total protein was loaded onto each lane for SDS-PAGE (3–8% Tris Acetate). The proteins were transferred onto nitrocellulose membrane using the iBLOT® dry blotting system (Life Technologies) according to manufacturer’s protocol. The membranes were blocked and incubated with a primary antibody against LRRK2 (Cell Signaling Technologies), followed by incubation with alkaline phosphatase-conjugated secondary antibody (WesternBreeze® chromogenic Kit, Life Technologies). The blot was developed by using the chromogenic BCIP/NBT substrate (WesternBreeze® chromogenic Kit, Life Technologies). […] Two days post induction, cells were treated for 90 minutes in the presence of 20 µM of compound or DMSO vehicle control. […]
On the technique in general: Immunoblotting shows a protein as a band on a membrane.

For `COc1cc(C(=O)N2CCC(N3CCN(C)CC3)CC2)ccc1Nc1ncc2c(n1)N(C)c1ccccc1C(=O)N2C` [LRRK2-IN-1], the “Ser935 phosphorylation by Western blot” value is “significantly reduced”.
